The record followed here is ChEMBL document CHEMBL1201862, “PubChem BioAssay data set” (2004).

Common to all, as to experiment: NCI anticancer screen, dose series, 48 h
The subject of assay [1] is CCRF-CEM.
The test system of assay [2] is OVCAR-5.
The subject of assay [3] is HOP-92.
Assay [4] has as its system DU-145.
The test system of assay [5] is SK-MEL-28.
The subject of assay [6] is UACC-62.
Assay [7] has as its system OVCAR-8.
Assay [8] concerns SR.
The subject of assay [9] is SNB-19.
Assay [10] relates to Malme-3M.
The subject of assay [11] is NCI-H23.
Assay [12] deals with OVCAR-4.
Assay [13] relates to SF-295.
Assay [14] concerns NCI-H226.
In assay [15] the test system is NCI-H460.
Assay [16] deals with EKVX.
Assay [17] concerns HCT-116.
For assay [18], the system named is HOP-62.
Assay [19] relates to HT-29.

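Results reflect a 48-hour exposure of cells in 96-well plates to compound at five concentrations. Abbreviation: GI50, concentration required for 50% inhibition of growth.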 The source made the active and inactive calls. Rule as the data show it: active = GI50 up to about 1.1 µM and inactive = higher. Some results are limits rather than exact numbers.

For `COC1CC(N)(c2ccccc2)C(O)C(C)O1` (configuration not stated), the GI50 in [1], in assay [2], in assay [3], in assay [4], in [5] and in assay [6] was > 100 µM (inactive) in each case. Further, the GI50 in assay [7], in assay [8], in [9], in assay [10], in [11] and in [12] was > 100 µM (inactive) in each case. Further, the GI50 in [13], in [14], in [15], in [16], in [17] and in [18] was > 100 µM (inactive) in each case.
For `O=C1N/C(=N/N=C\c2ccccc2)N/C1=C/c1ccccc1`, the GI50 in assay [1] is 23.2 µM (inactive); in assay [2], 21.6 µM (inactive); in [3] it was 22.2 µM (inactive); in assay [4], 22.3 µM (inactive); in [5], 85.1 µM (inactive); in [7], 26.2 µM (inactive). In addition, the GI50 was 16.1 µM (inactive) in assay [8]; 21.6 µM (inactive) in [9]; 34.2 µM (inactive) in assay [10]; 21.7 µM (inactive) in [11]; 15.2 µM (inactive) in [12]; 38.9 µM (inactive) in assay [13]. Besides, the GI50 was 14.8 µM (inactive) in assay [14]; 20.6 µM (inactive) in [15]; 23.8 µM (inactive) in assay [16]; 34.6 µM (inactive) in [17]; 19.5 µM (inactive) in [18]; 24.9 µM (inactive) in [19].
In the case of `Cc1cccc(O)c1-c1nnc(CCCCCCCCc2nnc(-c3c(C)cccc3O)n2N)n1N`, the GI50 in assay [1] is 0.929 µM (active); in assay [2], > 100 µM (inactive); in assay [3], 18 µM (inactive); in assay [4], > 100 µM (inactive); in [5] it was > 50.2 µM (inactive); in assay [6], 66.7 µM (inactive). Also, the GI50 is 1.86 µM (inactive) in assay [7]; 19.1 µM (inactive) in assay [8]; 41.2 µM (inactive) in assay [9]; > 85.3 µM (inactive) in [10]; 48.6 µM (inactive) in assay [11]; 18.7 µM (inactive) in assay [12]. In addition, the GI50 in assay [13] was 51.6 µM (inactive); in assay [14], 55.7 µM (inactive); in assay [15], 24.3 µM (inactive); in [16] it was > 67.3 µM (inactive); in assay [17], 72.3 µM (inactive); in assay [18], 27.6 µM (inactive). In [19], the GI50 was > 100 µM (inactive).
Consider `O=C(O)C1CCc2ccc3ccccc3c2C1c1cccc2ccccc12` (configuration not stated), for which the GI50 in assay [1] is 19.1 µM (inactive); in assay [2], 18.4 µM (inactive); in [3], 19.1 µM (inactive); in assay [4], 25.8 µM (inactive); in assay [5], 18.7 µM (inactive); in assay [6], 15.1 µM (inactive). The GI50 is 24.2 µM (inactive) in assay [7]; 20.8 µM (inactive) in [8]; 19.3 µM (inactive) in [9]; 22.4 µM (inactive) in [10]; 29 µM (inactive) in assay [12]; 23.9 µM (inactive) in assay [13]. The GI50 in assay [14] is 24.7 µM (inactive); in assay [15] it was 20 µM (inactive); in [16], 30.5 µM (inactive); in assay [17], 15.6 µM (inactive); in [18], 19 µM (inactive); in [19], 17.4 µM (inactive).
On to `CCCCCCN1C(=O)CC(=O)N(CCCCCC)S1(=O)=O`, for which the GI50 in [1] is 21.7 µM (inactive); in assay [2], 19.8 µM (inactive); in assay [3] it was 11.6 µM (inactive); in assay [4], 65.8 µM (inactive); in assay [6], 17.3 µM (inactive); in [8], 26.9 µM (inactive). Also, the GI50 in assay [9] is 41.9 µM (inactive); in [10] it was 23.5 µM (inactive); in assay [11] it was 25.7 µM (inactive); in assay [12], 20 µM (inactive); in [13] it was 18.1 µM (inactive); in [14], 26.6 µM (inactive). In addition, the GI50 in [15] was 31.5 µM (inactive); in assay [16], 20.8 µM (inactive); in [17] it was 29.6 µM (inactive); in assay [18], 18.9 µM (inactive); in assay [19], 21.6 µM (inactive).
Regarding `Clc1nss/c1=N/c1nonc1-c1ccccc1`, the GI50 is 17.9 µM (inactive) in assay [1]; 19.5 µM (inactive) in assay [2]; 40.2 µM (inactive) in assay [3]; 22.7 µM (inactive) in [4]; 48.1 µM (inactive) in assay [5]; 33.3 µM (inactive) in assay [6]. In addition, the GI50 in assay [7] is 28.6 µM (inactive); in assay [8] it was 18.4 µM (inactive); in assay [9], 55.6 µM (inactive); in assay [10] it was 28 µM (inactive); in [11], 26.1 µM (inactive); in [12] it was 49.9 µM (inactive). In addition, the GI50 in assay [13] is 55.2 µM (inactive); in assay [14], 29.6 µM (inactive); in assay [15], > 100 µM (inactive); in assay [16], 37.4 µM (inactive); in assay [17], 34.9 µM (inactive); in [18] it was 51.3 µM (inactive). In addition, the GI50 in assay [19] was 22 µM (inactive).
`CCNC1=C(NC(=O)c2ccc(F)cc2)C(=O)c2ccccc2C1=O`: the GI50 in [1] is 35.8 µM (inactive); in assay [2], > 100 µM (inactive); in assay [3], > 100 µM (inactive); in assay [4], > 100 µM (inactive); in [5], > 100 µM (inactive); in assay [6], 15.1 µM (inactive). The GI50 is 32.7 µM (inactive) in assay [7]; 48.4 µM (inactive) in assay [8]; > 100 µM (inactive) in assay [9]; 19.2 µM (inactive) in assay [10]; 34.6 µM (inactive) in assay [11]; 40.1 µM (inactive) in [12]. Also, the GI50 in assay [13] was 52.6 µM (inactive); in [14], > 100 µM (inactive); in assay [15] it was 50.1 µM (inactive); in [16], > 100 µM (inactive); in assay [17], 30.3 µM (inactive); in [18] it was > 100 µM (inactive). In addition, the GI50 in assay [19] is 22.2 µM (inactive).
As for `CCC1=C(C=O)c2cc3[nH]c(cc4nc(c5c6[nH]c(cc1n2)c(C)c6C(=O)C5C(=O)OC)C(CCC(=O)OC)C4C)c(C)c3CC` (configuration not stated), the GI50 in assay [1], in [2], in assay [3], in assay [4], in [5] and in assay [6] was > 100 µM (inactive) in each case. The GI50 in assay [7], in [8], in assay [9], in assay [10], in assay [11] and in [12] was > 100 µM (inactive) throughout. Besides, the GI50 in assay [13], in assay [14], in assay [15], in [16], in [17] and in assay [18] was > 100 µM (inactive) each time. Moreover, the GI50 in assay [19] is > 100 µM (inactive).
On to `COc1ccc(-c2cn3c(nc4ccccc43)c(C)n2)cc1`, for which the GI50 in assay [1] is > 100 µM (inactive); in assay [2], > 78.5 µM (inactive); in assay [3] it was 21.7 µM (inactive); in assay [4] it was 51.1 µM (inactive); in assay [5], 95.5 µM (inactive); in [6], 35.3 µM (inactive). The GI50 is 34.4 µM (inactive) in [7]; > 77.4 µM (inactive) in assay [8]; 44.9 µM (inactive) in assay [9]; 69.2 µM (inactive) in assay [10]; 50.4 µM (inactive) in assay [11]; 47.6 µM (inactive) in assay [12]. Besides, the GI50 in assay [13] was 55 µM (inactive); in assay [14] it was > 68.5 µM (inactive); in assay [15], 60.1 µM (inactive); in assay [16], 83 µM (inactive); in assay [17] it was 85.1 µM (inactive); in assay [18], 31.8 µM (inactive). The GI50 in assay [19] is > 100 µM (inactive).
`O=C1C(Cl)C(c2cccc(Cl)c2)N1c1ccc(-n2c(S)nc3ccccc3c2=O)cc1` (configuration not stated): the GI50 in [1] was 23 µM (inactive); in assay [2], 24.9 µM (inactive); in [3], 19.9 µM (inactive); in [4] it was 35.2 µM (inactive); in assay [6], 14.8 µM (inactive); in [7] it was 37.3 µM (inactive). The GI50 in assay [8] is 10.7 µM (inactive); in [9], 2.47 µM (inactive); in [10] it was 40.2 µM (inactive); in [11], 19.6 µM (inactive); in [12] it was 13.6 µM (inactive); in [13] it was 19.2 µM (inactive). Besides, the GI50 is 25.4 µM (inactive) in assay [14]; 16.5 µM (inactive) in assay [15]; 32.1 µM (inactive) in [16]; 24.4 µM (inactive) in [17]; 23.9 µM (inactive) in [18]; 18.8 µM (inactive) in assay [19].
Regarding `C/C(CC(O)(C(F)(F)Cl)C(F)(F)Cl)=N\Nc1ccccc1`, the GI50 in assay [1] was 29 µM (inactive); in assay [2] it was > 100 µM (inactive); in assay [3], 21.7 µM (inactive); in [4], 49 µM (inactive); in assay [5], 47.2 µM (inactive); in assay [6], 43.3 µM (inactive). Besides, the GI50 in [7] is 36.7 µM (inactive); in [8], 39.1 µM (inactive); in assay [9], 36.9 µM (inactive); in [10], 32.4 µM (inactive); in assay [11] it was 19.3 µM (inactive); in assay [12] it was 63.7 µM (inactive). Moreover, the GI50 in assay [13] was 42.3 µM (inactive); in assay [14], 25.2 µM (inactive); in assay [15], 29.7 µM (inactive); in assay [16] it was 23.1 µM (inactive); in [17], 34.5 µM (inactive); in assay [19] it was 42.9 µM (inactive).
